Measured values from EPA's ToxValDB 9.5 (doi:10.2903/j.efsa.2009.178r).

Key:
Daphnia magna = details: chronic/long-term; duration: 21 days; mobility
Apis mellifera = details: acute, mortality
Colinus virginianus = details: acute; oral; diet; mortality
Canidae = details: chronic; duration: 1 years; oral; Dog Other; histopathology: nonneoplastic
Tagia sp. = details: acute; mortality
Procambarus sp. = details: acute; duration: 96 hours; mortality
Aphidius rhopalosiphi = experiment: LR50; higher = less toxic; details: not reported; mortality
Typhlodromus pyri = experiment: LR50; higher = less toxic; details: not reported; mortality

## COC(=O)c1ccccc1CS(=O)(=O)NC(=O)Nc1nc(OC)cc(OC)n1 [Bensulfuron-methyl]
Daphnia magna
  NOEC: 12 mg/L
Apis mellifera; dermal
  LD50: > 100 µg/piece
Apis mellifera; oral, unspecified
  LD50: > 51.4 µg/piece
Colinus virginianus
  LC50: > 1680 mg/kg-day
Anas platyrhynchos; acute, oral, unspecified, M/F, mortality
  LD50: ≥ 2510 mg/kg
Anas platyrhynchos; reproductive
  NOEC: 83 mg/kg-day
Anas platyrhynchos; short-term, oral, feed, mortality
  LC50: > 1690 mg/kg-day
Canidae
  NOAEL: 19.9 mg/kg-day
Tagia sp.
  LC50: > 1000 mg/kg
Oncorhynchus mykiss; acute, duration: 96 hours, mortality
  LC50: > 66 µg/mL
Oncorhynchus mykiss; chronic/long-term, duration: 90 days, other
  NOEC: 1.5 mg/L
Rattus norvegicus; acute, oral, mortality
  LD50: ≥ 5000 mg/kg
Rattus norvegicus; reproduction developmental, reproduction
  NOEL: 20.9 mg/kg-day
Procambarus sp.
  LC50: > 71 µg/mL
Aphidius rhopalosiphi
  LR50: > 600 g/ha
Typhlodromus pyri
  LR50: > 600 g/ha
